Measurements published in patent publication US10231453B2, “5-substituted imidazole derivatives” (BAYER CROPSCIENCE AKTIENGESELLSCHAFT, priority 2015, dated 2019).

Tests used:
[1] = Measurement of LogP values by HPLC on reversed phase columns (EEC directive 79/831 Annex V.A8); format: physicochemical; details: method [a]: LC-UV, acidic range, 0.1% formic acid in water and acetonitrile as eluent; Table 1
Protocol: Measurement of Log P values was performed as outlined above.

Puccinia recondita = assay: In vivo preventive test on Puccinia recondita (brown rust on wheat), Examples C and R3; details: Puccinia recondita, 264 h; 500 ppm of active ingredient; wheat, preventive spray, evaluated 11 days after inoculation; read-out: efficacy
Uromyces appendiculatus = assay: In vivo preventive test on Uromyces appendiculatus (bean rust), Examples G and R7; details: 264 h, 500 ppm of active ingredient, bean, preventive spray, evaluated 11 days after inoculation, read-out: efficacy
Pyrenophora teres = assay: In vivo preventive test on Pyrenophora teres (net blotch on barley), Examples D, Q2 and R4; details: Pyrenophora teres, 336 h, 500 ppm of active ingredient, preventive spray, evaluated 14 days after inoculation, read-out: efficacy
Septoria tritici = assay: In vivo preventive test on Septoria tritici (leaf spot on wheat), Examples E, Q3 and R5; details: Zymoseptoria tritici, 576 h, 500 ppm of active ingredient; wheat, preventive spray, evaluated 24 days after inoculation; read-out: efficacy
Sphaerotheca fuliginea = assay: In vivo preventive test on Sphaerotheca fuliginea (powdery mildew on cucurbits), Examples F and R6; details: Podosphaera fuliginea, 360 h; 500 ppm of active ingredient; gherkin, preventive spray, evaluated 15 days after inoculation; read-out: efficacy

Row | Structure (SMILES) | chromatographic logP [1] | pest or weed control at 500 ppm (Puccinia recondita) [%] | pest or weed control at 500 ppm (Uromyces appendiculatus) [%] | pest or weed control at 500 ppm (Pyrenophora teres) [%] | pest or weed control at 500 ppm (Septoria tritici) [%] | pest or weed control at 500 ppm (Sphaerotheca fuliginea) [%]
1 | Cc1cncn1CC(O)(Cc1cccnc1Cl)C1(Cl)CC1 (centres unmarked) [Example I-10] | 1.22 | 80 to 89 | 90 to 100 | – | – | –
2 | O=Cc1cncn1CC(O)(Cc1ccccc1Cl)C1(Cl)CC1 (centres unmarked) [Example I-12] | – | 80 to 89 | 90 to 100 | 90 to 100 | 90 to 100 | 90 to 100
3 | N#Cc1cncn1CC(O)(C(F)c1ccccc1Cl)C1(Cl)CC1 (centres unmarked) [Example I-24] | 2.82 | 80 to 89 | 90 to 100 | – | 90 to 100 | 90 to 100
4 | OC(Cn1cncc1Cl)(C(F)c1ccccc1F)C1(Cl)CC1 (centres unmarked) [Example I-28] | 2.01 | 80 to 89 | 70 to 79 | – | 80 to 89 | 90 to 100
5 | COc1cncn1CC(O)(Cc1ccccc1F)C1(Cl)CC1 (centres unmarked) [Example I-35] | 1.67 | – | – | – | 90 to 100 | –
6 | OC(Cc1ccccc1F)(Cn1cncc1C1CC1)C1(Cl)CC1 (centres unmarked) [Example I-37] | 1.86 | 80 to 89 | – | – | 90 to 100 | –
7 | N#Cc1cncn1CC(O)(Cc1cc(Br)ncc1Br)C1(Cl)CC1 (centres unmarked) [Example I-47] | 2.73 | 80 to 89 | 90 to 100 | – | – | 90 to 100
8 | N#Cc1cncn1CC(O)(Cc1ccnc(Br)c1Br)C1(Cl)CC1 (centres unmarked) [Example I-48] | – | 80 to 89 | 90 to 100 | 70 to 79 | 90 to 100 | 90 to 100
9 | Cc1ccc(CC(O)(Cn2cncc2C#N)C2(Cl)CC2)c(C)c1 (centres unmarked) [Example I-51] | – | 90 to 100 | 80 to 89 | 90 to 100 | 90 to 100 | 90 to 100
10 | N#Cc1cncn1CC(O)(Cc1ccncc1Cl)C1(Cl)CC1 (centres unmarked) [Example I-57] | 1.88 | 90 to 100 | 90 to 100 | – | 90 to 100 | 90 to 100
11 | N#Cc1cncn1CC(O)(Cc1cc(Cl)cc(Cl)c1)C1(Cl)CC1 (centres unmarked) [Example I-58] | 3.55 | 80 to 89 | 90 to 100 | – | 80 to 89 | 90 to 100
12 | OC(Cc1ccnc(Cl)c1Cl)(Cn1cncc1Cl)C1(Cl)CC1 (centres unmarked) [Example I-67] | 2.08 | 80 to 89 | 90 to 100 | – | – | 90 to 100
13 | Cc1ccc(CC(O)(Cn2cncc2Cl)C2(Cl)CC2)c(C)c1 (centres unmarked) [Example I-68] | 2.69 | 70 to 79 | 90 to 100 | – | – | –
14 | OC(Cc1cc(Cl)nc(Cl)c1)(Cn1cncc1Cl)C1(Cl)CC1 (centres unmarked) [Example I-74] | 2.23 | – | 90 to 100 | – | 90 to 100 | 90 to 100
15 | Nc1cncn1CC(O)(Cc1ccccc1Cl)C1(Cl)CC1 (centres unmarked) [Example I-78] | 1.5 | – | – | – | 80 to 89 | 80 to 89
16 | OC(Cc1ccccc1C(F)(F)F)(Cn1cncc1Cl)C1(Cl)CC1 (centres unmarked) [Example I-89] | 2.62 | 80 to 89 | 90 to 100 | 80 to 89 | – | 90 to 100
17 | N#Cc1cncn1CC(O)(Cc1ccc(F)c(F)c1F)C1CCC1 (centres unmarked) [Example I-104] | 2.78 | 90 to 100 | 90 to 100 | – | 90 to 100 | 90 to 100
18 | CC(C)C(O)(Cc1ccc(F)c(F)c1F)Cn1cncc1C#N (centres unmarked) [Example I-105] | 2.78 | 70 to 79 | – | – | 70 to 79 | 90 to 100
19 | N#Cc1cncn1CC(O)(Cc1ccc(F)c(F)c1F)CC1CC1 (centres unmarked) [Example I-106] | 2.73 | 80 to 89 | 90 to 100 | – | 90 to 100 | 90 to 100
20 | NC(=O)c1cncn1CC(O)(Cc1ccc(Cl)cc1F)C1CC1 (centres unmarked) [Example I-116] | 1.49 | – | – | – | 90 to 100 | 90 to 100
21 | N#Cc1cncn1CC(O)(Cc1ccc(Cl)cc1F)C1CCC1 (centres unmarked) [Example I-117] | 3.31 | 90 to 100 | 90 to 100 | – | 90 to 100 | 90 to 100
22 | N#Cc1cncn1CC(O)(Cc1ccc(Cl)cc1F)CC1CC1 (centres unmarked) [Example I-120] | – | 90 to 100 | 90 to 100 | 70 to 79 | 70 to 79 | 90 to 100
23 | CCOC(Cc1ccc(Cl)cc1F)(Cn1cncc1Cl)C1(Cl)CC1 (centres unmarked) [Example I-122] | 3.1 | 80 to 89 | 90 to 100 | – | 90 to 100 | 90 to 100
24 | C=CCOC(Cc1ccc(Cl)cc1F)(Cn1cncc1Cl)C1(Cl)CC1 (centres unmarked) [Example I-123] | 3.31 | 80 to 89 | 80 to 89 | – | 90 to 100 | 90 to 100
25 | N#Cc1cncn1CC(O)(Cc1ccccc1F)CC1CC1 (centres unmarked) [Example I-141] | 2.45 | 90 to 100 | 90 to 100 | – | 90 to 100 | 90 to 100
26 | Cc1cccc(CC(O)(Cn2cncc2Cl)C2(Cl)CC2)c1F (centres unmarked) [Example I-143] | 2.35 | 90 to 100 | – | 70 to 79 | 90 to 100 | 90 to 100
